#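 Grown in 96-well plates, cells were treated for 48 hours with each compound at five concentrations. Insufficient inhibition: endpoint recorded as highest concentration tested. The concentration for 50% growth inhibition is given as GI50.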 Activity calls are given as the source filed them. Cut-off read from the data, not from the text of the source: active = GI50 up to about 1.1 µM and inactive = higher.
# Key:
# Assay in all cases: NCI tumour cell line growth inhibition, 48 h
# [1] = tested on: 786-0
# [2] = tested on: OVCAR-8
# [3] = tested on: DU-145
# [4] = tested on: TK-10
# [5] = tested on: SNB-75
# [6] = tested on: A498
# [7] = tested on: NCI-H460
# [8] = tested on: UACC-62
# [9] = tested on: NCI/ADR-RES
# [10] = tested on: MOLT-4
# [11] = tested on: HCT-15
# [12] = tested on: MCF7
# [13] = tested on: T47D
# [14] = tested on: MDA-MB-435
# [15] = tested on: HT-29
# [16] = tested on: NCI-H226
# [17] = tested on: Hs-578T
# [18] = tested on: Malme-3M
# [19] = tested on: K562
# [20] = tested on: SF-268
# [21] = tested on: RXF 393
# [22] = tested on: HOP-92
# [23] = tested on: U-251
# [24] = tested on: A549
# [25] = tested on: LOX IMVI
# [26] = tested on: SK-OV-3
# [27] = tested on: SN12C
# [28] = tested on: UACC-257
# [29] = tested on: OVCAR-3
# [30] = tested on: CCRF-CEM
# [31] = tested on: BT-549
# [32] = tested on: SW-620
# [33] = tested on: SK-MEL-2
# [34] = tested on: SR
# [35] = tested on: IGROV-1
# [36] = tested on: MDA-N
# [37] = tested on: RPMI-8226
# [38] = tested on: HL-60
# [39] = tested on: SK-MEL-28
# [40] = tested on: ACHN
# [41] = tested on: COLO 205
# [42] = tested on: EKVX
# [43] = tested on: KM12
# [44] = tested on: SK-MEL-5
# [45] = tested on: OVCAR-4
# [46] = tested on: UO-31
# [47] = tested on: HCC 2998
# [48] = tested on: OVCAR-5
# [49] = tested on: SF-295
# [50] = tested on: CAKI-1
# [51] = tested on: NCI-H522
# [52] = tested on: PC-3
# [53] = tested on: MDA-MB-231
# [54] = tested on: SF-539
# [55] = tested on: NCI-H23
# [56] = tested on: HOP-62
# [57] = tested on: SNB-19
# [58] = tested on: HCT-116
# [59] = tested on: M14
compound,measurement,setting,value
O=C(NNC(=S)Nc1ccccc1)c1ccccc1Nc1ccccc1C(=O)NNC(=S)Nc1ccccc1,GI50,[1],13.8 µM (inactive)
same,GI50,[2],20 µM (inactive)
same,GI50,[3],23.3 µM (inactive)
same,GI50,[4],25.3 µM (inactive)
same,GI50,[5],22.4 µM (inactive)
same,GI50,[6],42.8 µM (inactive)
same,GI50,[7],20 µM (inactive)
same,GI50,[8],13.1 µM (inactive)
same,GI50,[9],87.3 µM (inactive)
same,GI50,[10],29.6 µM (inactive)
same,GI50,[11],29.5 µM
same,GI50,[12],23.8 µM (inactive)
same,GI50,[13],27.7 µM (inactive)
same,GI50,[14],20.9 µM (inactive)
same,GI50,[15],28.5 µM (inactive)
same,GI50,[16],24.5 µM (inactive)
same,GI50,[17],13.1 µM (inactive)
same,GI50,[18],19.8 µM (inactive)
same,GI50,[19],74 µM (inactive)
same,GI50,[20],17 µM (inactive)
same,GI50,[21],19.2 µM (inactive)
same,GI50,[22],8.53 µM (inactive)
same,GI50,[23],19.5 µM (inactive)
same,GI50,[24],27.2 µM (inactive)
same,GI50,[25],12.9 µM (inactive)
same,GI50,[26],30.1 µM (inactive)
same,GI50,[27],19.6 µM (inactive)
same,GI50,[28],19.1 µM (inactive)
same,GI50,[29],19.6 µM (inactive)
same,GI50,[30],76.4 µM (inactive)
same,GI50,[31],17.4 µM (inactive)
same,GI50,[32],40.9 µM (inactive)
same,GI50,[33],19.6 µM (inactive)
same,GI50,[34],43.6 µM (inactive)
same,GI50,[35],8.24 µM (inactive)
same,GI50,[36],29.1 µM (inactive)
same,GI50,[37],18.6 µM (inactive)
same,GI50,[38],35.5 µM (inactive)
same,GI50,[39],33 µM (inactive)
same,GI50,[40],31.2 µM (inactive)
same,GI50,[41],22.1 µM (inactive)
same,GI50,[42],21.1 µM (inactive)
same,GI50,[43],42 µM (inactive)
same,GI50,[44],26.3 µM (inactive)
same,GI50,[45],26.7 µM (inactive)
same,GI50,[46],17.7 µM (inactive)
same,GI50,[47],16.9 µM (inactive)
same,GI50,[48],16.8 µM (inactive)
same,GI50,[49],20.9 µM (inactive)
same,GI50,[50],48.2 µM (inactive)
same,GI50,[51],16.5 µM (inactive)
same,GI50,[52],23 µM (inactive)
same,GI50,[53],21.7 µM (inactive)
same,GI50,[54],24.1 µM (inactive)
same,GI50,[55],18.9 µM (inactive)
same,GI50,[56],21.7 µM (inactive)
same,GI50,[57],17.7 µM (inactive)
same,GI50,[58],17.7 µM (inactive)
same,GI50,[59],19 µM (inactive)
CCCCCc1cc(CCCC)sc1-c1ccco1,GI50,[1],> 100 µM (inactive)
same,GI50,[2],> 100 µM (inactive)
same,GI50,[3],> 100 µM (inactive)
same,GI50,[4],> 100 µM (inactive)
same,GI50,[5],> 100 µM (inactive)
same,GI50,[6],> 100 µM (inactive)
same,GI50,[7],> 100 µM (inactive)
same,GI50,[8],> 100 µM (inactive)
same,GI50,[9],> 100 µM (inactive)
same,GI50,[10],51.9 µM (inactive)
same,GI50,[11],> 100 µM
same,GI50,[12],76.4 µM (inactive)
same,GI50,[13],> 91.2 µM (inactive)
same,GI50,[14],66.5 µM (inactive)
same,GI50,[15],45 µM (inactive)
same,GI50,[16],> 100 µM (inactive)
same,GI50,[17],> 100 µM (inactive)
same,GI50,[18],40 µM (inactive)
same,GI50,[19],> 58.2 µM (inactive)
same,GI50,[20],> 100 µM (inactive)
same,GI50,[21],45.8 µM (inactive)
same,GI50,[22],> 100 µM (inactive)
same,GI50,[23],> 76.7 µM (inactive)
same,GI50,[24],40 µM (inactive)
same,GI50,[25],49.9 µM (inactive)
same,GI50,[26],> 100 µM (inactive)
same,GI50,[27],> 100 µM (inactive)
same,GI50,[28],> 64.3 µM (inactive)
same,GI50,[29],> 74.8 µM (inactive)
same,GI50,[30],30.5 µM (inactive)
same,GI50,[31],> 100 µM (inactive)
same,GI50,[32],> 100 µM (inactive)
same,GI50,[33],> 83.9 µM (inactive)
same,GI50,[34],44.2 µM (inactive)
same,GI50,[35],> 100 µM (inactive)
same,GI50,[36],> 80.5 µM (inactive)
same,GI50,[37],55.3 µM (inactive)
same,GI50,[38],21.7 µM (inactive)
same,GI50,[39],> 100 µM (inactive)
same,GI50,[40],> 100 µM (inactive)
same,GI50,[41],> 100 µM (inactive)
same,GI50,[42],> 87.1 µM (inactive)
same,GI50,[43],> 86.9 µM (inactive)
same,GI50,[44],> 100 µM (inactive)
same,GI50,[45],> 100 µM (inactive)
same,GI50,[46],> 100 µM (inactive)
same,GI50,[47],> 95.9 µM (inactive)
same,GI50,[48],> 87.3 µM (inactive)
same,GI50,[49],> 85.5 µM (inactive)
same,GI50,[50],> 100 µM (inactive)
same,GI50,[51],> 100 µM (inactive)
same,GI50,[52],> 100 µM (inactive)
same,GI50,[53],> 100 µM (inactive)
same,GI50,[54],> 93.8 µM (inactive)
same,GI50,[55],> 100 µM (inactive)
same,GI50,[56],> 100 µM (inactive)
same,GI50,[57],> 100 µM (inactive)
same,GI50,[58],29.6 µM (inactive)
same,GI50,[59],97.5 µM (inactive)
CC[C@@]1(O)C(=O)OCc2c1cc1n(c2=O)Cc2c-1nc1ccc(N)cc1c2CC[Si](C)(C)C,GI50,[1],< 0.01 µM (active)
same,GI50,[2],< 0.01 µM (active)
same,GI50,[3],< 0.01 µM (active)
same,GI50,[4],0.051 µM (active)
same,GI50,[5],< 0.01 µM (active)
same,GI50,[6],< 0.01 µM (active)
same,GI50,[7],< 0.01 µM (active)
same,GI50,[8],< 0.01 µM (active)
same,GI50,[9],< 0.01 µM (active)
same,GI50,[10],< 0.01 µM (active)
same,GI50,[11],0.0153 µM
same,GI50,[12],< 0.01 µM (active)
same,GI50,[13],< 0.01 µM (active)
same,GI50,[14],< 0.01 µM (active)
same,GI50,[15],< 0.01 µM (active)
same,GI50,[16],< 0.01 µM (active)
same,GI50,[17],0.134 µM (active)
same,GI50,[18],< 0.0115 µM (active)
same,GI50,[19],< 0.01 µM (active)
same,GI50,[20],< 0.01 µM (active)
same,GI50,[21],< 0.01 µM (active)
same,GI50,[22],< 0.025 µM (active)
same,GI50,[23],< 0.01 µM (active)
same,GI50,[24],< 0.01 µM (active)
same,GI50,[25],< 0.01 µM (active)
same,GI50,[26],< 0.01 µM (active)
same,GI50,[27],< 0.01 µM (active)
same,GI50,[28],< 0.01 µM (active)
same,GI50,[29],< 0.0188 µM (active)
same,GI50,[30],< 0.01 µM (active)
same,GI50,[31],< 0.01 µM (active)
same,GI50,[32],< 0.01 µM (active)
same,GI50,[33],0.0409 µM (active)
same,GI50,[34],< 0.01 µM (active)
same,GI50,[35],< 0.01 µM (active)
same,GI50,[36],< 0.01 µM (active)
same,GI50,[37],< 0.01 µM (active)
same,GI50,[38],< 0.01 µM (active)
same,GI50,[39],0.0227 µM (active)
same,GI50,[40],< 0.01 µM (active)
same,GI50,[41],< 0.0164 µM (active)
same,GI50,[42],< 0.0212 µM (active)
same,GI50,[43],0.0155 µM (active)
same,GI50,[44],< 0.01 µM (active)
same,GI50,[45],0.015 µM (active)
same,GI50,[46],< 0.01 µM (active)
same,GI50,[47],< 0.0111 µM (active)
same,GI50,[48],< 0.0223 µM (active)
same,GI50,[49],< 0.01 µM (active)
same,GI50,[50],< 0.01 µM (active)
same,GI50,[51],< 0.01 µM (active)
same,GI50,[52],< 0.0229 µM (active)
same,GI50,[53],< 0.0363 µM (active)
same,GI50,[54],< 0.01 µM (active)
same,GI50,[55],< 0.01 µM (active)
same,GI50,[56],< 0.01 µM (active)
same,GI50,[57],< 0.01 µM (active)
same,GI50,[58],< 0.01 µM (active)
same,GI50,[59],< 0.01 µM (active)

# — ChEMBL document CHEMBL1201862, “PubChem BioAssay data set” (2004)
